The source of these data is patent US10501479B2, “Benzenesulfonyl-asymmetric ureas and medical uses thereof” (HELSINN HEALTHCARE SA, priority 2016, dated 2019).

The target in data set [1] is T1, recombinant human ghrelin receptor (HEK293/GRLN) (Homo sapiens, UniProt Q92847).
T1 construct: expressed in transfected cells
The data set is described as follows: Ghrelin inverse agonist potency (EC50) with IP-1 (IP-One HTRF) assay. To be noted: IP-1 assay, HEK293/GRLN; read-out: Activity EC50 (ghrelin inverse agonist potency). In kind it is cell-based. In a few lines: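 HEK293/GRLN cells were seeded 18-22 hours before the test, then exposed to compound in stimulation buffer for 1 hour at 37° C, 5% CO2. IP-1 was detected by IP-One HTRF (IP1-d2 plus Tb-cryptate, 1 hour RT), reading 620 and 665 nm; the inverse agonist EC50 was derived from this.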

Data set [2] concerns the target T2, GHSR-1a (HEK293/GHSR1a cell line) (Homo sapiens, UniProt Q92847).
T2 construct: expressed in transfected cells; host or cells: HEK293/GHSR1a cell line
The data set is described as follows: Ghrelin agonist potency (EC50) with calcium FLIPR assay. The data set is classed as cell-based. To be noted: HEK293/GHSR1a, read-out: Activity EC50/EMax: EC50 (ghrelin agonist potency). The procedure, abridged:
(§1)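 Cells seeded 24 h before the run were loaded with calcium dye for 30-60 min at room temperature or 37° C. For agonism, compound was added at t=20 sec and the calcium signal followed for 2 minutes. For antagonism, compound plus ghrelin (10 nM) went on at t=20 sec, and IC50 reflected the drop in ghrelin response.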

Data set [3] concerns the target T2, GHSR-1a (HEK293/GHSR1a cell line). The data set is described as follows: Ghrelin antagonist potency (IC50) with calcium FLIPR assay, ghrelin 10 nM. In kind it is cell-based. To be noted: HEK293/GHSR1a, ghrelin 10 nM, read-out: Activity IC50 (ghrelin antagonist potency). The procedure, abridged: as §1
Data set [4] in a line: Metabolic stability in human liver microsomes. The data set is classed as in vitro ADME. In a few lines: (§2)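 Test compounds were incubated with liver microsomes in 100 mM potassium phosphate buffer, pH 7.4, at 37 °C, with reactions started by an NADPH regenerating system after a 5 min preincubation. Samples taken at 0, 10, 30 and 90 min were quenched cold, centrifuged, and parent remaining was quantified by LC-MS/MS.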
A general note: Liver microsomes are vesicles of endoplasmic reticulum, rich in cytochrome P450 enzymes.

Data set [5] is described as follows: Metabolic stability in mouse liver microsomes. The data set is classed as in vitro ADME. In a few lines: as §2

As usually defined, the IC50 is the point on the concentration scale where inhibition reaches its midpoint.

Structures are written as SMILES.

T1 sequence (Q92847 whole entry): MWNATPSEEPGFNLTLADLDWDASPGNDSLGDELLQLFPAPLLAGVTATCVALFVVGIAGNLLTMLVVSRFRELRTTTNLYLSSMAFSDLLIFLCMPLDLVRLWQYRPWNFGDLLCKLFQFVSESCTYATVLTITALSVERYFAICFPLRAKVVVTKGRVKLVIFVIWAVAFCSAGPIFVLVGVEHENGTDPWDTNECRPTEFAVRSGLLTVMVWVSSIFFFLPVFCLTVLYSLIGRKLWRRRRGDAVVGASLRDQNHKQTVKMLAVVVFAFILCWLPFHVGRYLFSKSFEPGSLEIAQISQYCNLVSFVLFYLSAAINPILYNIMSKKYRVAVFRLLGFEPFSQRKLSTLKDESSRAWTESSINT
T2 sequence (Q92847 whole entry): as above

With `CC(NC(=O)Nc1ccc(S(=O)(=O)Nc2ccc3c(c2)CCN(C)C3)cc1)c1cccc(F)c1F` (stereo not shown) [H1346, 4-(3-(1-(2,3-difluorophenyl)ethyl)ureido)-N-(2-methyl-1,2,3,4-tetrahydroisoquinolin-6-yl)benzenesulfonamide], the EC50 in data set [1] was 6.98 nM; in data set [2], greater than 30 µM. For the same compound, the IC50 in data set [3] stood at 19.1 nM. In data set [4], the “Metabolic Stability Study H = human” value came out at 72.9 µL/min/mg. Besides, in data set [5], the “Metabolic Stability Study M = mouse” value turned out to be 69.3 µL/min/mg.

In the case of `CC(NC(=O)Nc1ccc(S(=O)(=O)Nc2ccc3c(c2)CCN(C)C3)cc1)c1ccccc1F` (stereo not shown) [H1347, 4-(3-(1-(2-fluorophenyl)ethyl)ureido)-N-(2-methyl-1,2,3,4-tetrahydroisoquinolin-6-yl)benzenesulfonamide], the EC50 in data set [1] was 7.95 nM; in data set [2] it was greater than 30 µM. Also, the IC50 in data set [3] was determined as 26.2 nM. Also, the “Metabolic Stability Study H = human” value in data set [4] was found to be 59.9 µL/min/mg. Moreover, the “Metabolic Stability Study M = mouse” value in data set [5] was 58.1 µL/min/mg.

Turning to `C[C@@H](NC(=O)Nc1ccc(S(=O)(=O)Cc2cc(F)c3c(c2)CN(C)C3)cc1)c1ccccc1` [H1355, (R)-1-(4-(((7-fluoro-2-methylisoindolin-5-yl)methyl)sulfonyl)phenyl)-3-(1-phenylethyl)urea], the EC50 in data set [1] was 12.9 nM; in data set [2], greater than 30 µM. Further, in data set [3], the IC50 was determined as 41 nM. Besides, in data set [4], the “Metabolic Stability Study H = human” value was 153.5 µL/min/mg. The “Metabolic Stability Study M = mouse” value in data set [5] came out at 304.3 µL/min/mg.

For the compound `CC(NC(=O)Nc1ccc(S(=O)(=O)Cc2cc3c(s2)CCN(C)C3)cc1)c1cccc(Cl)c1Cl` (stereo not shown) [H1359, 1-(1-(2,3-dichlorophenyl)ethyl)-3-(4-(((5-methyl-4,5,6,7-tetrahydrothieno[3,2-c]pyridin-2-yl)methyl)sulfonyl)phenyl)urea], the EC50 in data set [1] was 4 nM; in data set [2] it was greater than 30 µM. Moreover, in data set [3], the half-maximal inhibitory concentration (IC50) turned out to be 1.5 nM. In data set [4], the “Metabolic Stability Study H = human” value is reported as “H = 108.6 M = 108.6 R = not reported D = not reported μL/min/mg”. Further, the “Metabolic Stability Study M = mouse” value in data set [5] is given as “H = 108.6 M = 108.6 R = not reported D = not reported μL/min/mg”.

For `C[C@@H](NC(=O)Nc1ccc(S(=O)(=O)Cc2ccc3c(c2F)CN(C)C3)cc1)c1ccccc1` [H1363, (R)-1-(4-(((4-fluoro-2-methylisoindolin-5-yl)methyl)sulfonyl)phenyl)-3-(1-phenylethyl)urea], the EC50 was 3.15 nM in data set [1] and greater than 30 µM in data set [2]. In addition, the IC50 in data set [3] turned out to be 8.4 nM. Further, in data set [4], the “Metabolic Stability Study H = human” value is 140.1 µL/min/mg. For the same compound, the “Metabolic Stability Study M = mouse” value in data set [5] amounted to 335.3 µL/min/mg.

`C[C@@H](NC(=O)Nc1ccc(S(=O)(=O)Nc2ccnc(N)n2)cc1)c1cccc(Cl)c1Cl` [H1364, (R)-N-(2-aminopyrimidin-4-yl)-4-(3-(1-(2,3-dichlorophenyl)ethyl)ureido) benzenesulfonamide]: the values for the EC50 in data set [1] and in data set [2] were 130 nM and greater than 30 µM, respectively. For the same compound, the IC50 in data set [3] is 29.6 nM. Moreover, the “Metabolic Stability Study H = human” value in data set [4] is less than 10 µL/min/mg. Besides, the “Metabolic Stability Study M = mouse” value in data set [5] turned out to be 36 µL/min/mg.

`CC(NC(=O)Nc1ccc(S(=O)(=O)Cc2cc3c(s2)CN(C)CC3)cc1)c1cccc(Cl)c1Cl` (stereo not shown) [H1384, 1-(1-(2,3-dichlorophenyl)ethyl)-3-(4-(((6-methyl-4,5,6,7-tetrahydrothieno[2,3-c]pyridin-2-yl)methyl)sulfonyl)phenyl)urea]: the values for the EC50 in data set [1] and in data set [2] were 2.4 nM and greater than 30 µM, respectively. Moreover, the IC50 in data set [3] amounted to 5.95 nM. Moreover, the “Metabolic Stability Study H = human” value in data set [4] amounted to 95.1 µL/min/mg. Moreover, the “Metabolic Stability Study M = mouse” value in data set [5] stood at 165.1 µL/min/mg.

`CC(NC(=O)Nc1ccc(S(=O)(=O)Cc2cc3c(cc2F)CNCC3)cc1)c1cccc(Cl)c1Cl` (stereo not shown) [H1385, 1-(1-(2,3-dichlorophenyl)ethyl)-3-(4-(((7-fluoro-1,2,3,4-tetrahydroisoquinolin-6-yl)methyl)sulfonyl)phenyl)urea]: the EC50 was 6.5 nM in data set [1] and greater than 30 µM in data set [2]. The IC50 in data set [3] is 3.98 nM. Besides, in data set [4], the “Metabolic Stability Study H = human” value was “H = <10 M = <10 μL/min/mg”. The “Metabolic Stability Study M = mouse” value in data set [5] is on record as “H = <10 M = <10 μL/min/mg”.

As for `COc1cc(S(=O)(=O)Cc2ccc3c(c2)CCNC3)ccc1NC(=O)NC(C)c1ccccc1` (stereo not shown) [H1386, 1-(2-methoxy-4-(((1,2,3,4-tetrahydroisoquinolin-6-yl)methyl)sulfonyl)phenyl)-3-(1-phenylethyl)urea], the EC50 in data set [1] was 11.7 nM; in data set [2], greater than 30 µM. Further, the IC50 in data set [3] was determined as 21.2 nM. In addition, in data set [4], the “Metabolic Stability Study H = human” value is less than 10 µL/min/mg. Besides, the “Metabolic Stability Study M = mouse” value in data set [5] is 11 µL/min/mg.

In the case of `COc1cc(S(=O)(=O)Cc2ccc3c(c2)CCN(C)C3)ccc1NC(=O)NC(C)c1ccccc1` (stereo not shown) [H1387, 1-(2-methoxy-4-(((2-methyl-1,2,3,4-tetrahydroisoquinolin-6-yl)methyl)sulfonyl)phenyl)-3-(1-phenylethyl)urea], the EC50 was 3.7 nM in data set [1] and greater than 30 µM in data set [2]. Besides, the IC50 in data set [3] came out at 7.4 nM. Also, the “Metabolic Stability Study H = human” value in data set [4] is 86.7 µL/min/mg. The “Metabolic Stability Study M = mouse” value in data set [5] came out at 167.5 µL/min/mg.

On to `CC(NC(=O)Nc1ccc(S(=O)(=O)Cc2ccc3c(c2)CNC3)cc1F)c1ccccc1F.Cl` (stereo not shown) [H1389, 1-(2-fluoro-4-((isoindolin-5-ylmethyl)sulfonyl)phenyl)-3-(1-(2-fluorophenyl)ethyl)urea], for which the figures for the EC50 in data set [1] and in data set [2] were 15.1 nM and greater than 30 µM, respectively. Further, in data set [3], the IC50 was found to be 27.6 nM. In addition, the “Metabolic Stability Study H = human” value in data set [4] came to 21.3 µL/min/mg. In addition, the “Metabolic Stability Study M = mouse” value in data set [5] amounted to 21.2 µL/min/mg.

For `COc1ccccc1C(C)NC(=O)Nc1ccc(S(=O)(=O)Cc2ccc3c(c2)CNC3)cc1F.Cl` (stereo not shown) [H1390, 1-(2-fluoro-4-((isoindolin-5-ylmethyl)sulfonyl)phenyl)-3-(1-(2-methoxyphenyl)ethyl)urea], the EC50 in data set [1] is 10.7 nM; in data set [2], greater than 30 µM. Also, the IC50 in data set [3] is 36.4 nM. Besides, in data set [4], the “Metabolic Stability Study H = human” value was 34.6 µL/min/mg. Besides, in data set [5], the “Metabolic Stability Study M = mouse” value came out at 55.9 µL/min/mg.

For the compound `CC(NC(=O)Nc1ccc(S(=O)(=O)Cc2ccc3c(c2)CNC3)cc1)c1c(F)cccc1F` (stereo not shown) [H1391, 1-(1-(2,6-difluorophenyl)ethyl)-3-(4-((isoindolin-5-ylmethyl)sulfonyl)phenyl)urea], the values for the EC50 in data set [1] and in data set [2] were 7.2 nM and greater than 30 µM, respectively. Also, in data set [3], the IC50 stood at 10.5 nM. In addition, the “Metabolic Stability Study H = human” value in data set [4] turned out to be 14.8 µL/min/mg. Further, the “Metabolic Stability Study M = mouse” value in data set [5] worked out at 11.8 µL/min/mg.

Turning to `COc1cc(S(=O)(=O)Cc2ccc3c(c2)CNC3)ccc1NC(=O)NC(C)c1ccccc1OC` (stereo not shown) [H1393, 1-(4-((isoindolin-5-ylmethyl)sulfonyl)-2-methoxyphenyl)-3-(1-(2-methoxyphenyl)ethyl)urea], the results for the EC50 in data set [1] and in data set [2] were 3.73 nM and greater than 30 µM, respectively. The half-maximal inhibitory concentration (IC50) in data set [3] is 9.2 nM. In data set [4], the “Metabolic Stability Study H = human” value worked out at 55.5 µL/min/mg. Moreover, the “Metabolic Stability Study M = mouse” value in data set [5] worked out at 55.1 µL/min/mg.
